In one assay the test system is P. aeruginosa ATCC 35151. Put plainly: microbe, parasite or virus in culture. Format: cell-based. The settings on record: Pseudomonas aeruginosa, ATCC35151, read-out: Minimum inhibitory concentration, P. aeruginosa ATCC 35151.
Assay [1] relates to B. humptydooensis ATCC BAA-2767. Kind of assay: microbe, parasite or virus in culture. Type of assay: cell-based. As to conditions: Burkholderia humptydooensis, ATCCBAA2767, read-out: Minimum inhibitory concentration (MIC), B. humptydooensis ATCC BAA-2767.
The test system of the next assay is A. baumannii CDC-0045. Kind of assay: microbe, parasite or virus in culture. Format: cell-based. As to conditions: Acinetobacter baumannii, CDC0045, read-out: Minimum inhibitory concentration (MIC), A. baumannii CDC-0045.
The subject of the next assay is P. aeruginosa ATCC 27853. Kind of assay: microbe, parasite or virus in culture. Type of assay: cell-based. The settings on record: Pseudomonas aeruginosa, ATCC27853, read-out: Minimum inhibitory concentration, P. aeruginosa ATCC 27853.
In a further assay the test system is A. baumannii ATCC 19606. Kind of assay: microbe, parasite or virus in culture. Format: cell-based. As to conditions: Acinetobacter baumannii, ATCC19606, read-out: Minimum inhibitory concentration (MIC), A. baumannii ATCC 19606.
For another assay, the system named is A. baumannii CDC-0036. Kind of assay: microbe, parasite or virus in culture. Type of assay: cell-based. As to conditions: Acinetobacter baumannii, CDC0036, read-out: Minimum inhibitory concentration (MIC), A. baumannii CDC-0036.
A further assay has as its target A. baumannii PBP2 (Acinetobacter baumannii, UniProt D0C8Z9). Put plainly: Bocillin-FL competition binding via gel filtration, A. baumannii PBP2. The method, boiled down: (§1)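 Competitive equilibrium binding with Bocillin-FL reporter: PBP pre-incubated with inhibitor dilutions, Bocillin-FL added, 15 min incubation. Labelled enzyme isolated by size-exclusion spin plates, fluorescence measured; EC50 obtained by fitting bound fraction against inhibitor concentration with a Hill-coefficient model.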
For orientation: In gel filtration, larger molecules generally elute earlier.

Another assay addresses T1, A. baumannii PBP1a (Acinetobacter baumannii, UniProt A0ABX6CK30).
T1 sequence (A0ABX6CK30 1-851): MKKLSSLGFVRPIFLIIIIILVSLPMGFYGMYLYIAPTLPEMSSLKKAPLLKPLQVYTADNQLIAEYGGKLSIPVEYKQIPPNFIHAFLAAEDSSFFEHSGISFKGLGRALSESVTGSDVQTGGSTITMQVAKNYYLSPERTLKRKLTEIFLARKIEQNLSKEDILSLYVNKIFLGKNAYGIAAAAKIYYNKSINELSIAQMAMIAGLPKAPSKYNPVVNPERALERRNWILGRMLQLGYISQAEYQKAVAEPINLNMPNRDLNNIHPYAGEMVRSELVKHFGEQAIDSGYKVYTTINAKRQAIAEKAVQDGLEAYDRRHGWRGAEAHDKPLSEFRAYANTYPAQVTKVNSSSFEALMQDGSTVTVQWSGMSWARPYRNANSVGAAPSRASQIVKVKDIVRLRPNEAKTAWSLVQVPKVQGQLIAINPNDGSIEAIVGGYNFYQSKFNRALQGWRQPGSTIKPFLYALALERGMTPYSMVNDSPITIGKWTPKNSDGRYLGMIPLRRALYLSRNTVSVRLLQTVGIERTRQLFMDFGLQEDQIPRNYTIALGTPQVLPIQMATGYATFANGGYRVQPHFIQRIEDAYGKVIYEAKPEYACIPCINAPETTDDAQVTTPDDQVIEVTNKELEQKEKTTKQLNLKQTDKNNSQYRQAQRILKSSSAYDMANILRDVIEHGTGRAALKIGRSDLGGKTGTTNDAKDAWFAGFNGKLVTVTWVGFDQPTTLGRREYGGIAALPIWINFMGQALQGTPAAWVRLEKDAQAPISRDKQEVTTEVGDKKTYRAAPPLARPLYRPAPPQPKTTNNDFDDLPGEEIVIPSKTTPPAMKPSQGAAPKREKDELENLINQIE
Put plainly: Bocillin-FL competition binding via gel filtration, A. baumannii PBP1a. The method, boiled down:
as §1

In a further assay the test system is A. baumannii CDC-0033. Kind of assay: microbe, parasite or virus in culture. Type of assay: cell-based. The settings on record: Acinetobacter baumannii, CDC0033, read-out: Minimum inhibitory concentration (MIC), A. baumannii CDC-0033.
The mark [2] stands for this setting: competition binding assay using Bocillin-FL via gel filtration, read-out: A. baumannii PBP1a Potency.

Each structure is given as a SMILES string. In brackets after ≈: the same amount, converted by molar mass. Where two headings read alike, the source gives them in different places.

Chain of A. baumannii PBP2 (D0C8Z9 whole entry): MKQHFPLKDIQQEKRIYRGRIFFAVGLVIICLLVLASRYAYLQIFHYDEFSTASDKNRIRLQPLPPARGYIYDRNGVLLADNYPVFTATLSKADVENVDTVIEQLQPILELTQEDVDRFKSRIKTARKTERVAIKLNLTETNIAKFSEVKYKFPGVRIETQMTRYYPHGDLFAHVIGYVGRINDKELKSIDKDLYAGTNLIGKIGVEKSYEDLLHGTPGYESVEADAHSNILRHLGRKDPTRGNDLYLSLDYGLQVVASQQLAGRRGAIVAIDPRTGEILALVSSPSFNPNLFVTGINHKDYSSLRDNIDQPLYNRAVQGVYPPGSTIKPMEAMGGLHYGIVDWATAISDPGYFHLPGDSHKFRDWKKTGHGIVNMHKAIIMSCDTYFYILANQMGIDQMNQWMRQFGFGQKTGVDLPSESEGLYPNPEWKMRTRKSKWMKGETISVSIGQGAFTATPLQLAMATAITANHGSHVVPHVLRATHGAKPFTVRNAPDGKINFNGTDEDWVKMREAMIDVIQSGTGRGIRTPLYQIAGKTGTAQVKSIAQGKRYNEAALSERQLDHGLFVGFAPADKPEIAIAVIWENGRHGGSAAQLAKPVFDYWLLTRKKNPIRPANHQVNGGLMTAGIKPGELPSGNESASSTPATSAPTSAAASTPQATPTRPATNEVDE

Take `O=C(O)c1c(F)ccc2c1OB(O)[C@@H](NC(=O)[C@H](NC(=O)N1CCN(C3CCN(Cc4cccnc4)CC3)C1=O)c1cc(F)c(O)c(O)c1Cl)C2` [Example 492, (R)-3-((R)-2-(2-chloro-5-fluoro-3,4-dihydroxyphenyl)-2-(2-oxo-3-(1-(pyridin-3-ylmethyl)piperidin-4-yl)imidazolidine-1-carboxamido)acetamido)-7-fluoro-2-hydroxy-3,4-dihydro-2H-benzo[e][1,2]oxaborinine-8-carboxylic acid]: the MIC in the assay with P. aeruginosa ATCC 35151 was under 1 µg/mL; in assay [1], under 1 µg/mL; in the assay with A. baumannii CDC-0045, under 1 µg/mL; in the assay on P. aeruginosa ATCC 27853, under 1 µg/mL; in the assay on A. baumannii ATCC 19606, under 1 µg/mL; in the assay with A. baumannii CDC-0036, 2 to 4 µg/mL (≈ 2.74 to 5.49 µM). The MIC in the assay on A. baumannii CDC-0033 was under 1 µg/mL. For the same compound, the EC50 at A. baumannii PBP2 is 10 to 50 µM; at A. baumannii PBP1a, under 10 µM.

Turning to `O=C(O)c1c(F)ccc2c1OB(O)[C@@H](NC(=O)[C@H](NC(=O)N1CCN(C3CCN(Cc4ccncc4)CC3)C1=O)c1cc(F)c(O)c(O)c1Cl)C2` [Example 493, (R)-3-((R)-2-(2-chloro-5-fluoro-3,4-dihydroxyphenyl)-2-(2-oxo-3-(1-(pyridin-4-ylmethyl)piperidin-4-yl)imidazolidine-1-carboxamido)acetamido)-7-fluoro-2-hydroxy-3,4-dihydro-2H-benzo[e][1,2]oxaborinine-8-carboxylic acid], the MIC in the assay with P. aeruginosa ATCC 35151 is under 1 µg/mL; in [1], under 1 µg/mL; in the assay with A. baumannii CDC-0045 it was under 1 µg/mL; with P. aeruginosa ATCC 27853 it was 2 to 4 µg/mL (≈ 2.74 to 5.49 µM); in the assay with A. baumannii ATCC 19606, under 1 µg/mL; with A. baumannii CDC-0036, under 1 µg/mL. The MIC in the assay on A. baumannii CDC-0033 lay in the range of 2 to 4 µg/mL (≈ 2.74 to 5.49 µM). The figures for the EC50 on A. baumannii PBP2 and on A. baumannii PBP1a (setting [2]) were 10 to 50 µM and under 10 µM, respectively.

On to `O=C(O)c1c(F)ccc2c1OB(O)[C@@H](NC(=O)[C@H](NC(=O)N1CCN(C3CCN(C(=O)c4ccc(O)c(O)c4Cl)CC3)C1=O)c1ccc(P(=O)(O)O)cc1)C2` [Example 494, (R)-3-((R)-2-(3-(1-(2-chloro-3,4-dihydroxybenzoyl)piperidin-4-yl)-2-oxoimidazolidine-1-carboxamido)-2-(4-phosphonophenyl)acetamido)-7-fluoro-2-hydroxy-3,4-dihydro-2H-benzo[e][1,2]oxaborinine-8-carboxylic acid], for which the MIC (with P. aeruginosa ATCC 35151; in assay [1]; in the assay with A. baumannii CDC-0045; in the assay on P. aeruginosa ATCC 27853; in the assay with A. baumannii ATCC 19606; with A. baumannii CDC-0036) was under 1 µg/mL in each case. Further, in the assay on A. baumannii CDC-0033, the MIC was under 1 µg/mL. For the same compound, the EC50 on A. baumannii PBP2 was 10 to 50 µM; on A. baumannii PBP1a (setting [2]) it was 50 to 250 µM.

In the case of `O=C(O)c1c(F)ccc2c1OB(O)[C@@H](NC(=O)[C@H](NC(=O)N1CCN(C3CCN(C(=O)c4cc(O)c(O)c(Cl)c4)CC3)C1=O)c1ccc(P(=O)(O)O)cc1)C2` [Example 496, (R)-3-((R)-2-(3-(1-(3-chloro-4,5-dihydroxybenzoyl)piperidin-4-yl)-2-oxoimidazolidine-1-carboxamido)-2-(4-phosphonophenyl)acetamido)-7-fluoro-2-hydroxy-3,4-dihydro-2H-benzo[e][1,2]oxaborinine-8-carboxylic acid], the MIC (with P. aeruginosa ATCC 35151; in assay [1]; with A. baumannii CDC-0045; in the assay with P. aeruginosa ATCC 27853; in the assay on A. baumannii ATCC 19606; in the assay on A. baumannii CDC-0036) was under 1 µg/mL throughout. The MIC in the assay with A. baumannii CDC-0033 is under 1 µg/mL. The EC50 at A. baumannii PBP2 and at A. baumannii PBP1a (setting [2]) was under 10 µM throughout.

Turning to `O=C(O)c1c(F)ccc2c1OB(O)[C@@H](NC(=O)[C@H](NC(=O)N1CCN(Cc3ccc(O)c(O)c3Cl)C(=O)C1=O)c1cc(F)c(P(=O)(O)O)c(F)c1)C2` [Example 502, (R)-3-((R)-2-(4-(2-chloro-3,4-dihydroxybenzyl)-2,3-dioxopiperazine-1-carboxamido)-2-(3,5-difluoro-4-phosphonophenyl)acetamido)-7-fluoro-2-hydroxy-3,4-dihydro-2H-benzo[e][1,2]oxaborinine-8-carboxylic acid], the MIC (in the assay on P. aeruginosa ATCC 35151; in [1]; in the assay with A. baumannii CDC-0045; in the assay on P. aeruginosa ATCC 27853; in the assay with A. baumannii ATCC 19606; in the assay with A. baumannii CDC-0036) was under 1 µg/mL each time. Moreover, the MIC in the assay with A. baumannii CDC-0033 was under 1 µg/mL. Besides, the EC50 on A. baumannii PBP2 is under 10 µM; on A. baumannii PBP1a (setting [2]), 10 to 50 µM.

Take `O=C(NCCN1CCN(C(=O)N[C@@H](C(=O)N[C@H]2Cc3ccc(F)c(C(=O)O)c3OB2O)c2ccc(P(=O)(O)O)cc2)C(=O)C1=O)c1ccc(O)c(O)c1Cl` [Example 503, (R)-3-((R)-2-(4-(2-(2-chloro-3,4-dihydroxybenzamido)ethyl)-2,3-dioxopiperazine-1-carboxamido)-2-(4-phosphonophenyl)acetamido)-7-fluoro-2-hydroxy-3,4-dihydro-2H-benzo[e][1,2]oxaborinine-8-carboxylic acid]: the MIC with P. aeruginosa ATCC 35151 is under 1 µg/mL; in assay [1] it was under 1 µg/mL; with A. baumannii CDC-0045, 2 to 4 µg/mL (≈ 2.53 to 5.05 µM); in the assay on P. aeruginosa ATCC 27853 it was under 1 µg/mL; in the assay with A. baumannii ATCC 19606, under 1 µg/mL; in the assay on A. baumannii CDC-0036, 2 to 4 µg/mL (≈ 2.53 to 5.05 µM). Further, the MIC in the assay on A. baumannii CDC-0033 fell in the range of 2 to 4 µg/mL (≈ 2.53 to 5.05 µM). For the same compound, the EC50 on A. baumannii PBP2 and on A. baumannii PBP1a (setting [2]) was 10 to 50 µM each time.

Consider `O=C(O)c1cccc2c1OB(O)[C@@H](NC(=O)[C@H](NC(=O)N1CCN(Cc3cc(F)c(O)c(O)c3Cl)C(=O)C1=O)c1ccc(P(=O)(O)O)cc1)C2` [Example 504, (R)-3-((R)-2-(4-(2-chloro-5-fluoro-3,4-dihydroxybenzyl)-2,3-dioxopiperazine-1-carboxamido)-2-(4-phosphonophenyl)acetamido)-2-hydroxy-3,4-dihydro-2H-benzo[e][1,2]oxaborinine-8-carboxylic acid], for which the MIC (with P. aeruginosa ATCC 35151; in [1]; with A. baumannii CDC-0045; in the assay on P. aeruginosa ATCC 27853; in the assay on A. baumannii ATCC 19606; with A. baumannii CDC-0036) was under 1 µg/mL each time. For the same compound, the MIC with A. baumannii CDC-0033 is under 1 µg/mL. Moreover, the EC50 at A. baumannii PBP2 and on A. baumannii PBP1a (setting [2]) was under 10 µM in each case.

`O=C(O)c1c(F)ccc2c1OB(O)[C@@H](NC(=O)C(NC(=O)N1CCN(S(=O)(=O)c3ccc(O)c(O)c3Cl)C1=O)c1ccc(P(=O)(O)O)cc1)C2` (stereo partly drawn) [Example 505, (3R)-3-(2-(3-((2-chloro-3,4-dihydroxyphenyl)sulfonyl)-2-oxoimidazolidine-1-carboxamido)-2-(4-phosphonophenyl)acetamido)-7-fluoro-2-hydroxy-3,4-dihydro-2H-benzo[e][1,2]oxaborinine-8-carboxylic acid]: the MIC (with P. aeruginosa ATCC 35151; in assay [1]; with A. baumannii CDC-0045; in the assay with P. aeruginosa ATCC 27853; with A. baumannii ATCC 19606; in the assay on A. baumannii CDC-0036) was under 1 µg/mL each time. The MIC in the assay with A. baumannii CDC-0033 was under 1 µg/mL. Besides, the EC50 on A. baumannii PBP2 and on A. baumannii PBP1a (setting [2]) was under 10 µM throughout.

Values taken from patent publication US20240270762A1, “PENICILLIN-BINDING PROTEIN INHIBITORS” (priority 2021, published 2024).
